Reference: publication PMC4491176, “Caenorhabditis elegans is a useful model for anthelmintic discovery” (Nature Communications, 2015)

Legend:
[1] = tested on: C. onchophora; experiment: C. oncophora egg hatch chemical screen; assay type: in vivo, Cooperia onchophora; design: key: 1 = yes; settings: 90-100% lethal at 7.5 or 60 μM
Description: (§1) Fresh cattle and sheep faeces containing eggs of an ivermectin-resistant strain of C. onchophora[39] and the MHco3(ISE) strain of H. contortus, respectively, were kindly supplied by Dr Doug Colwell and Dawn Gray (Lethbridge Research Station, Agriculture and Agri-Food Canada). Experimental infections used to generate this material were carried out using established methods, and were approved by the Lethbridge AAFC Animal Care committee and conducted under animal use license ACC1407. Cattle faeces containing C. onchophora eggs were stored anaerobically at 4 °C for a maximum of 3 weeks, whereas sheep faeces containing H. contortus eggs were stored at 20 °C for no more than 48 h before harvesting eggs for use. Eggs were isolated from faeces using a standard saturated salt flotation method[42] immediately before each egg hatch assay. Approximately 100 eggs suspended in 100 μl of water were added to each well of a 96-well plate, and the wactive library chemicals were screened at two different concentrations (7.5 and 60 μM, 0.6% DMSO v/v). Baseline egg hatch rates were determined in DMSO control wells ∼48 h after the initial set-up of the assay by the addition of iodine tincture to stop development. […] A dissection microscope was used for visualization purposes.

[2] = tested on: H. contortus; experiment: H. contortus egg hatch chemical screen; assay type: in vivo, Haemonchus contortus; settings: 90-100% lethal at 7.5 or 60 μM
Description: as §1

[3] = tested on: D. rerio; experiment: Zebrafish embryo chemical screening; assay type: in vivo, Danio rerio (zebrafish); settings: embryos, 10 μM, death or toxicity at 24 and 48 h post fertilization
Description: Wild-type (AB) zebrafish embryos were collected in E3 solution (5 mM NaCl, 0.17 mM KCl, 0.33 mM CaCl2, 0.33 mM MgSO4) immediately after fertilization and arrayed at three embryos per well in 96-well plates, 200 μl per well. Wild-type (AB) zebrafish were originally obtained from Zebrafish International Resource Center (University of Oregon). Chemicals were added to each well at 6 h post fertilization at a final concentration of 10 μM (0.5% v/v DMSO), with each plate containing nine wells of DMSO controls. Embryos were examined for mortality and observable developmental phenotypes at 24 and 48 h post fertilization using an Olympus SZX10 Brightfield microscope. Phenotypes examined were death, developmental delay, reduced pigmentation, cranial oedema or cardiac defects (slow/absent heart rate, abnormal heart size). Each compound was screened in duplicate, with only phenotypes appearing in both replicates associated with a given compound. Any compound producing multiple, distinct phenotypes across replicates (for example, cardiac defects in one replicate, mortality in another) was labelled ‘toxic'. A molecule was considered ‘lethal' to zebrafish if it induced ‘death' or ‘toxicity'.

[4] = tested on: C. elegans; experiment: C. elegans liquid-based chemical screening of the wactive library; assay type: in vivo, Caenorhabditis elegans; design: key: 1 = yes
Description: (§2) The 96-well liquid-based chemical screening assay was adapted from an established RNAi screening protocol. Briefly, saturated HB101 Escherichia coli culture was concentrated 2-fold using NGM (nematode growth media) containing 3 mg ml^−1 NaCl, 2.5 mg ml^−1 peptone, 5 μg ml^−1 cholesterol, 1 mM CaCl2, 1 mM MgSO4 and 25 mM KH2PO4. A total of 40 μl of NGM+HB101 was dispensed into each well of a 96-well plate, and chemicals were pinned into the wells using a pinning tool with a 300 nl slot volume (V&P Scientific). Approximately 20 synchronized first larval-stage (L1) worms, in 10 μl of M9 buffer (see ref. [24] for the recipe), were then added to each well. The synchronized L1s were obtained from an embryo preparation (see ref. [24] for the protocol) performed the previous day. The final concentration of dimethyl sulfoxide (DMSO) in the wells was 0.6% v/v. A dissection microscope was used to visualize the wells either 5 or 6 days post worm deposition and any obvious chemical-induced phenotypes were noted.
For our preliminary screens, 50,596 out of 67,012 compounds were assayed in liquid at a 60 μM concentration, and the other 16,416 molecules were screened on solid media at 25 μM (see ref. [24] for a description of our solid-based screening method). […]

[5] = tested on: three nematode species, zebrafish and HEK cells; experiment: Grouping by phylogenetic bioactivity profile (multi-organism screening pipeline); design: key: Group 1 molecules are lethal to only one or two of the three nematode species tested, but are non-lethal to zebrafish and HEK cells.; Group 2 molecules are lethal to all three nematode species, but are non-lethal to zebrafish and human cells.; Group 3 molecule are lethal to fish or HEK cells, regardless of their nematode bioactivity profile; settings: nematode selectivity and cross-species lethality group
Text: To further characterize our 275 C. elegans-lethal molecules, we organized them into three separate groups based on their phylogenetic bioactivity profiles (Fig. 2a). Group 1 contains 102 molecules that are lethal to only one or two of the three nematode species tested, but are non-lethal to zebrafish and HEK cells. Group 2 contains 67 compounds that are lethal to all three nematode species, but are non-lethal to zebrafish and human cells. Group 3 contains the remaining 106 compounds that are lethal to fish or HEK cells, and have varied bioactivity in different nematode species. In particular, the 67 molecules in group 2 represent potentially ideal anthelmintic leads; they have activity across multiple nematode species, and appear not to affect vertebrates.

[6] = tested on: HEK293T cells; experiment: HEK293 cell proliferation (BrdU) chemical screening; assay type: cell-based; settings: 60 μM, BrdU normalized signal <0.16
Description: HEK293T cells (Attisano Lab, University of Toronto) were maintained in Dulbecco's Modified Eagle's Medium (Gibco) supplemented with 10% FBS (DMEM-10% FBS). Cells at a concentration of 50 cells μl^−1 were seeded into 96-well plates at a final volume of 100 μl (∼5,000 cells per well). Chemicals from the wactive library were added to the wells for a final concentration of 60 μM (0.6% DMSO v/v). The wactive library plates were screened at least in triplicate. Cell proliferation was determined using a bromodeoxyuridine (BrdU) assay kit (Exalpha Biologicals Inc.). The BrdU was added 2 days after chemical addition. Fixation and denaturation was performed ∼16–18 h later. Anti-BrdU antibody was added, and incorporated BrdU was detected using a horseradish peroxidase-conjugated goat anti-mouse antibody. The BrdU incorporation signal was measured at 450/550 nm for the amount of conversion of tetra-methylbenzidine that is proportional to the amount of BrdU incorporated. For each replicate of each plate, the average signal for the DMSO control wells was calculated. For each well in the plate (including the DMSO control wells), the signal was normalized by dividing by the average DMSO signal. The mean and standard deviation for the population of 960 normalized sample signals of the 10-plate wactive library were calculated and found to be […] and 0.44, respectively.

[7] = tested on: wact-11-family resistant C. elegans mutants (RP2674, RP2698 and others); experiment: 96-well liquid-based dose-response (in vivo LD100), wact-11-family resistant mutants; settings: liquid dose-response of resistant mutants versus N2
Description: as §2
The 96-well liquid-based assay was also used for all follow-up dose-response experiments in this work. These experiments were carried out in quadruplicate, and the total number of worms in each well was counted 6 days after worm deposition.

Brc1ccc(-c2noc(-c3cccs3)n2)cc1 [wact-2]
C. onchophora Lethal (1 = yes) [1]: 1
H. contortus Lethal (1 = yes) [2]: 0
D. rerio Lethal (1 = yes) [3]: 0
C. elegans Lethal (1 = yes) ([4]; 100% lethality at 60 μM or less): 1
Wactive (1 = yes) ([4]; induces obvious phenotype in C. elegans at 60 μM or less): 1
Group # (Bioactivity Group #) [5]: 1
HEK Cell Growth Decrease (1 = yes) [6]: 0
Resistance of wact-11-family resistant mutants to compound-induced lethality (in words) [7]: not
